Test results: paper PMC12409580, “Modulating Receptor Activity, Immune Response, and Kinetic Solubility: The Impact of Linker Chemistry in Conjugated NOD2/TLR4 Agonists” (ACS Omega, 2025)
Converted amounts (≈) assume the structure as drawn. “Also recorded” adds a separate entry of the source. Marks after values point to notes of the source that are not given here.

What was measured:
[1] = parameters: method as in previously reported; conditions: ref previously reported; cited from earlier work
[2] = Kinetic solubility in PBS (HPLC solubility assay); conditions: PBS, aqueous buffer, kinetic from dmso stock
NOD2 = NOD2 (Homo sapiens, UniProt Q9HC29); assay: NOD2 NF-κB SEAP reporter assay in HEK-Blue hNOD2 cells
[3] = parameters: method as in previous studies; conditions: kinetic solubility; ref previous studies; cited from earlier work
human PBMCs = conditions: 1 μM, 18 h
TLR4 = TLR4 (Homo sapiens, UniProt O00206+Q9Y6Y9); assay: TLR4 NF-κB SEAP reporter assay in HEK-Blue hTLR4 cells
[4] = Solubility sample 1, Tables S1–S3, replicate 1
[5] = Solubility sample 2, Tables S1–S3, replicate 2
[6] = solubility in PBS, kinetic solubility, HPLC solubility assay
[7] = 10 μM, 18 h, NF-κB transcriptional activity (SEAP) relative to 0.1% DMSO

NOD2, sequence (Q9HC29 whole entry): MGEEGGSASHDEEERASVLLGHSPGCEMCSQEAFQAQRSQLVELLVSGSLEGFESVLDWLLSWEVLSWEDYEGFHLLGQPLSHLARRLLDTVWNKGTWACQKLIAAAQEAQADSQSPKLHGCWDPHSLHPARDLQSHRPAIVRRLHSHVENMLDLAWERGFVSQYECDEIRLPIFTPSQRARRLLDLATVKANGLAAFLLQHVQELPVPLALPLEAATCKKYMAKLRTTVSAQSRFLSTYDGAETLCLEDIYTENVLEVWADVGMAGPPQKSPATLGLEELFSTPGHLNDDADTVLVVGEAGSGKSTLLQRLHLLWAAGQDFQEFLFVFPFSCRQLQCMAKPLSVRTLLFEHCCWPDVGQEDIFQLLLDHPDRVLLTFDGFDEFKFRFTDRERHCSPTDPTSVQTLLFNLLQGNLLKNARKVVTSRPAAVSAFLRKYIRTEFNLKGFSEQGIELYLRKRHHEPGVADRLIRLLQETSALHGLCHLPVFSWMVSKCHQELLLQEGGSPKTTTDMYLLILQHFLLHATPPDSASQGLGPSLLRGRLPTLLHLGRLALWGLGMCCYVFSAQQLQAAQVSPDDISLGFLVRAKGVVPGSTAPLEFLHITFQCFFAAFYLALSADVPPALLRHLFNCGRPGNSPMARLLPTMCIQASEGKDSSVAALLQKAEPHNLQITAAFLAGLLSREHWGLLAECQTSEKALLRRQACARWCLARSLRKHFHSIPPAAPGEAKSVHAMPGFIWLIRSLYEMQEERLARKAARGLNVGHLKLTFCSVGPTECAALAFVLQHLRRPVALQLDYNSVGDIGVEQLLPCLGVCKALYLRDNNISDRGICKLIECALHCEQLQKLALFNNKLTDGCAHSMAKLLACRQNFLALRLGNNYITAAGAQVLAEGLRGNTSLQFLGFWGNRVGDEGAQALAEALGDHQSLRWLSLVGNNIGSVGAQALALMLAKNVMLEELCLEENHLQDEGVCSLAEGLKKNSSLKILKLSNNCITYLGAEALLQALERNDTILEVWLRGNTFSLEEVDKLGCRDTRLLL
TLR4, sequence (O00206 24-839): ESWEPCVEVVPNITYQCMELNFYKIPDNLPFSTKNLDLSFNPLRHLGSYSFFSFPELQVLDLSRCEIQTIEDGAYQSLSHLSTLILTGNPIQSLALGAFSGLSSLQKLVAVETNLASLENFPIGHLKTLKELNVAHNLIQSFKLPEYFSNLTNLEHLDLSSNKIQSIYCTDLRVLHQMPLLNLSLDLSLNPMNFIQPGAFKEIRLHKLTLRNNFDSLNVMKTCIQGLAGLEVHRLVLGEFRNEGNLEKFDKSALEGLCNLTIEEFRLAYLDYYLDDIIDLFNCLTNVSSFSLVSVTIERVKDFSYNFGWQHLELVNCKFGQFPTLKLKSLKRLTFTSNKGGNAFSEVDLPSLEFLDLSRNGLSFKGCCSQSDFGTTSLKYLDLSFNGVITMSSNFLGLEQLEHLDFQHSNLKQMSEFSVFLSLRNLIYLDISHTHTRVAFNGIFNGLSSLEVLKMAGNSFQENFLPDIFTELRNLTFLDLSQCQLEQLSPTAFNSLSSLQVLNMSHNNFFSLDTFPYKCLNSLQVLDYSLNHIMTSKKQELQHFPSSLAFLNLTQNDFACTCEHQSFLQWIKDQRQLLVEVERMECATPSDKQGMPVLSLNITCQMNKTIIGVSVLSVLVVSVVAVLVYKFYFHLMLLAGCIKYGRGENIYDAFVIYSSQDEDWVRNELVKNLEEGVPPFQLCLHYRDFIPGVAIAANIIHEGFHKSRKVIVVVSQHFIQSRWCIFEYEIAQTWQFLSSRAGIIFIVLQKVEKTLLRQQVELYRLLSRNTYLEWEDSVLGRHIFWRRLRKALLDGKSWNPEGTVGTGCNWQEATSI
TLR4, sequence (Q9Y6Y9 17-160 limits assumed): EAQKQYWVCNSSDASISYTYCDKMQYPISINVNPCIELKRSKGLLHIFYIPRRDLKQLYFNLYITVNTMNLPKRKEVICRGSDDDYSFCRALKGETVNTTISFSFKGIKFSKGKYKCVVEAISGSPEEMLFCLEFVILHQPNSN

| SMILES | immunostimulatory activity [1] | solubility [2, 4] | solubility [2, 5] | solubility [2, 6] | NOD2 activation, fold increase (NOD2; 2 μM, 18 h, NF-κB transcriptional activity (SEAP) relative to 0.1% DMSO) | solubility in PBS [3] | overall cytokine production (human PBMCs) | production of IL-6, IL-10, TNF-α, and IFN-γ (human PBMCs) | NOD2 activation at 10 μM, fold increase (NOD2; [7]) | NOD2 agonist activity (NOD2; compared with NOD2 agonist 3 and MDP (4 μM)) | TLR4 activation at 10 μM, fold increase (TLR4; [7]) | maximum TLR4 activation (TLR4; HEK-Blue hTLR4, 21 at 10 μM) | concentration at which compound activated TLR4 (TLR4; dose-response 0.5–10 μM (17–21) or 1–100 μM (27–31)) |
| --- | --- | --- | --- | --- | --- | --- | --- | --- | --- | --- | --- | --- | --- |
| COc1cc(/C=C/C(=O)NCC(=O)N[C@H](C(=O)N[C@H](CCC(=O)OC2CCCC2)C(=O)OC2CCCC2)C(C)C)ccc1OC(=O)CCCCCNC(=O)CSc1nc2c([nH]c3ccccc32)c(=O)n1-c1ccccc1 [Compound 2, reference compound] | inactivity; also recorded: lacked immunostimulatory activity | 0.26 µM (≈ 0.276 µg/mL) | 0.44 µM (≈ 0.467 µg/mL) | 0.35 µM (≈ 0.372 µg/mL) |  |  |  |  |  |  |  |  |  |
| CCOC(=O)C(CCC(=O)O)NC(=O)C(NC(=O)CNC(=O)C=Cc1ccc(O)c(OC)c1)C(C)C (stereo not shown) [Compound 3, reference compound] |  |  |  |  | 3.06 ^d fold increase | 414.8 ^c μM |  |  |  |  |  |  |  |
| CCOC(=O)[C@@H](CCC(=O)N1CCC(CN2CCN(C(=O)Cc3ccc(C(C(=O)NC4CCCC4)N(C(=O)c4cc(-c5ccccc5)n(-c5ccccc5)n4)c4ccc5c(c4)CCC5)cc3)CC2)CC1)NC(=O)[C@@H](NC(=O)CNC(=O)/C=C/c1ccc(O)c(OC)c1)C(C)C (stereo partly drawn) [Compound 21, Ethyl (2R)-5-(4-((4-(2-(4-(2-(Cyclopentylamino)-1-(N-(2,3-dihydro-1H-inden-5-yl)-1,5-diphenyl-1H-pyrazole-3-carboxamido)-2-oxoethyl)phenyl)acetyl)piperazin-1-yl)methyl)piperidin-1-yl)-2-((S)-2-(2-((E)-3-(4-hydroxy-3-methoxyphenyl)acrylamido)acetamido)-3-methylbutanamido)-5-oxopentanoate] |  | 0.34 µM (≈ 0.44 µg/mL) | 0.32 µM (≈ 0.414 µg/mL) | 0.33 µM (≈ 0.427 µg/mL) |  |  | most potent immunomodulator in the series | moderately enhanced | 3.31 fold increase | comparable efficiency to MDP | 5.30 fold increase | 5.30 fold | 0.5 µM |
